This note sets out measurements from the supplement of paper PMC10331698.

± gives the standard deviation of the averaged measurements.

Compound in the assay: OCCC(F)(F)C(F)(F)C(F)(F)C(F)(F)F [4:2 Fluorotelomer alcohol] (in DMSO)
Description: level (log10 ratio to DMSO vehicle control); higher = higher biomarker level / cell amount than vehicle control. The protocol:
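BioMAP Diversity Plus panel of 12 human primary cell co-culture systems (3C, 4H, LPS, SAg, BT, BF4T, BE3C, CASM3C, HDF3CGF, KF3CT, MyoF, Mphg). Compounds were added 1 h before stimulation and left for 24 h (MyoF 48 h; BT 72 h for soluble read-outs or 6 d for IgG). Biomarkers were read by ELISA, cytotoxicity by SRB, PBMC viability and proliferation by Alamar Blue. Each well value was divided by the mean of 8 DMSO control wells on the same plate and log10 transformed; duplicate blinded samples were tested at 4 concentrations.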

For the test system BF4T:SRB, the “level (log10)” value runs as follows: (6700 nM) -0.0075 ± 0.00071; (20000 nM) -0.0105 ± 0.0078; (60000 nM) -0.0045 ± 0.012.

Regarding BF4T:tPA, the “level (log10)” value by setting is: (6700 nM) -0.0085 ± 0.056; (20000 nM) -0.0155 ± 0.071; (60000 nM) 0.022.

Take BF4T:uPA: the “level (log10)” value is -0.008 ± 0.035 (6700 nM), 0.012 ± 0.013 (20000 nM) and 0.018 ± 0.025 (60000 nM).

BT:B cell Proliferation: the “level (log10)” value runs as follows: (6700 nM) 0.0125 ± 0.0035; (20000 nM) 0.0155 ± 0.033; (60000 nM) 0.019 ± 0.0042.

On to BT:PBMC Cytotoxicity, for which the “level (log10)” value reads like this: (6700 nM) -0.044 ± 0.0042; (20000 nM) -0.0365 ± 0.013; (60000 nM) -0.045 ± 0.031.

For the test system BT:Secreted IgG, the “level (log10)” value (6700 nM) was found to be 0.023 ± 0.028, the “level (log10)” value (20000 nM) was determined as 0.0205 ± 0.018 and the “level (log10)” value (60000 nM) was 0.013 ± 0.0057.

In the case of BT:sIL-2, the “level (log10)” value reads like this: (6700 nM) 0.0085 ± 0.064; (20000 nM) 0.0625 ± 0.11; (60000 nM) 0.0265 ± 0.071.

Turning to BT:sIL-6, the “level (log10)” value runs as follows: (6700 nM) 0.035 ± 0.02; (20000 nM) 0.0455 ± 0.036; (60000 nM) 0.009 ± 0.069.

Turning to BT:sIL-17A, the “level (log10)” value was -0.007 ± 0.21 (6700 nM), -0.043 ± 0.11 (20000 nM) and -0.037 ± 0.18 (60000 nM).

Take BT:sIL-17F: the “level (log10)” value is, setting by setting: (6700 nM) 0.0025 ± 0.03; (20000 nM) 0.075 ± 0.055; (60000 nM) 0.0675 ± 0.14.

BT:sTNF-alpha: the “level (log10)” value is 0.126 ± 0.061 (6700 nM), 0.0895 ± 0.077 (20000 nM) and 0.143 ± 0.14 (60000 nM).

On to LPS:CCL2/MCP-1, for which the “level (log10)” value (6700 nM) was -0.0125 ± 0.021, the “level (log10)” value (20000 nM) is -0.0095 ± 0.00071 and the “level (log10)” value (60000 nM) was 0.019 ± 0.0057.

In the case of LPS:CD40, the “level (log10)” value is -0.008 ± 0.016 (6700 nM), -0.041 ± 0.014 (20000 nM) and -0.032 (60000 nM).

Take LPS:CD62E/E-Selectin: the “level (log10)” value (6700 nM) amounted to 0.002 ± 0.023, the “level (log10)” value (20000 nM) was -0.0195 ± 0.012 and the “level (log10)” value (60000 nM) is -0.0045 ± 0.03.

Consider LPS:CD69, for which the “level (log10)” value (6700 nM) is -0.0295 ± 0.025, the “level (log10)” value (20000 nM) was -0.0135 ± 0.015 and the “level (log10)” value (60000 nM) is -0.0105 ± 0.025.

On to LPS:CD106/VCAM-1, for which the “level (log10)” value is -0.017 ± 0.014 (6700 nM), -0.0145 ± 0.005 (20000 nM) and 0.0075 ± 0.00071 (60000 nM).

LPS:CD141/Thrombomodulin: the “level (log10)” value runs as follows: (6700 nM) -0.037 ± 0.034; (20000 nM) 0.0025 ± 0.03; (60000 nM) -0.005 ± 0.02.

For LPS:CD142/Tissue Factor, the “level (log10)” value is -0.0015 ± 0.0064 (6700 nM), -0.025 ± 0.047 (20000 nM) and 0.0235 ± 0.016 (60000 nM).

On to LPS:CXCL8/IL-8, for which the “level (log10)” value (6700 nM) is -0.0255 ± 0.015, the “level (log10)” value (20000 nM) is -0.0005 ± 0.0078 and the “level (log10)” value (60000 nM) is -0.005 ± 0.024.

Turning to LPS:IL-1alpha, the “level (log10)” value is -0.039 ± 0.055 (6700 nM), -0.0135 ± 0.0021 (20000 nM) and -0.0205 ± 0.0078 (60000 nM).

For LPS:M-CSF, the “level (log10)” value runs as follows: (6700 nM) -0.041 ± 0.027; (20000 nM) 0.005 ± 0.057; (60000 nM) 0.029 ± 0.044.

Consider LPS:SRB, for which the “level (log10)” value (6700 nM) was -0.012 ± 0.0057, the “level (log10)” value (20000 nM) was -0.0145 ± 0.0092 and the “level (log10)” value (60000 nM) was -0.006 ± 0.0014.

In the case of LPS:sPGE2, the “level (log10)” value is, setting by setting: (6700 nM) -0.008 ± 0.025; (20000 nM) -0.0115 ± 0.044; (60000 nM) -0.0105 ± 0.025.

As to LPS:sTNF-alpha, the “level (log10)” value runs as follows: (6700 nM) -0.008 ± 0.02; (20000 nM) -0.01 ± 0.0071; (60000 nM) 0.0015 ± 0.0092.

SAg:CCL2/MCP-1: the “level (log10)” value is -0.009 ± 0.0014 (6700 nM), 0.006 ± 0.025 (20000 nM) and 0.031 ± 0.089 (60000 nM).

SAg:CD38: the “level (log10)” value is, setting by setting: (6700 nM) 0.0085 ± 0.11; (20000 nM) 0.0295 ± 0.1; (60000 nM) 0.0235 ± 0.077.

In the case of SAg:CD40, the “level (log10)” value was -0.028 ± 0.059 (6700 nM), -0.036 ± 0.037 (20000 nM) and -0.006 ± 0.068 (60000 nM).

As for SAg:CD62E/E-Selectin, the “level (log10)” value (6700 nM) is -0.0125 ± 0.011, the “level (log10)” value (20000 nM) is -0.001 ± 0.011 and the “level (log10)” value (60000 nM) was determined as 0.025 ± 0.016.

Take SAg:CD69: the “level (log10)” value reads like this: (6700 nM) -0.0265 ± 0.00071; (20000 nM) -0.0115 ± 0.011; (60000 nM) -0.0005 ± 0.0092.

Regarding SAg:CXCL8/IL-8, the “level (log10)” value runs as follows: (6700 nM) -0.017 ± 0.0071; (20000 nM) -0.018 ± 0.016; (60000 nM) 0.018 ± 0.034.

On to SAg:CXCL9/MIG, for which the “level (log10)” value reads like this: (6700 nM) -0.0125 ± 0.0092; (20000 nM) 0.003 ± 0.0057; (60000 nM) 0.0105 ± 0.035.

In the case of SAg:PBMC Cytotoxicity, the “level (log10)” value runs as follows: (6700 nM) -0.021 ± 0.023; (20000 nM) -0.0085 ± 0.0021; (60000 nM) -0.0095 ± 0.005.

As to SAg:Proliferation, the “level (log10)” value (6700 nM) was -0.041 ± 0.042, the “level (log10)” value (20000 nM) was -0.033 ± 0.0071 and the “level (log10)” value (60000 nM) was -0.0025 ± 0.032.

On to SAg:SRB, for which the “level (log10)” value is, setting by setting: (6700 nM) -0.009 ± 0.0042; (20000 nM) -0.013 ± 0.016; (60000 nM) 0.001 ± 0.0028.
